This data set relates to CCRIS mutagenicity, Ames/micronucleus/aberration tests. Kind of data set: CCRIS mutagenicity studies.
Where [1] appears, read: Test System: AMES SALMONELLA TYPHIMURIUM, Strain/Indicator: TA1535, Metabolic Activation: NONE, Method: STANDARD PLATE.
[2] abbreviates: Test System: AMES SALMONELLA TYPHIMURIUM, Strain/Indicator: TA100, Metabolic Activation: NONE, Method: STANDARD PLATE.
Setting [3] is: Test System: AMES SALMONELLA TYPHIMURIUM, Strain/Indicator: TA98, Metabolic Activation: NONE, Method: STANDARD PLATE.

Experimental findings from PubChem BioAssay AID1259407 (Chemical Carcinogenesis Research Information System (CCRIS), 2018) are described below.

Structures are written as SMILES. The source made the active and inactive calls. How the calls were made is not given here.

Regarding `CN(Cc1ccc([N+](=O)[O-])cc1)N=O`, the mutagenic call (Test System: AMES SALMONELLA TYPHIMURIUM, Strain/Indicator: TA1535, Metabolic Activation: HAMSTER, LIVER, S-9, AROCLOR 1254, Method: STANDARD PLATE) is “active; positive” and the mutagenic call under setting [1] was “inactive; negative”.
For the molecule `O[C@H]1C=Cc2cccnc2[C@@H]1O`, the mutagenic call runs as follows: under setting [2], “inactive; negative”; (Test System: AMES SALMONELLA TYPHIMURIUM, Strain/Indicator: TA100, Metabolic Activation: RAT, LIVER, S-9, AROCLOR 1254 (10 OR 20%), Method: STANDARD PLATE) “inactive; negative”.
Consider `Nc1ccc(N)c2ccccc12`, for which the mutagenic call runs as follows: (Test System: AMES SALMONELLA TYPHIMURIUM, Strain/Indicator: TA98, Metabolic Activation: HAMSTER, LIVER, S-9, AROCLOR 1254 (5%), Method: PREINCUBATION) “inactive; negative”; (Test System: AMES SALMONELLA TYPHIMURIUM, Strain/Indicator: TA98, Metabolic Activation: HAMSTER, LIVER, S-9, AROCLOR 1254 (30%), Method: PREINCUBATION) “active; positive”; (Test System: AMES SALMONELLA TYPHIMURIUM, Strain/Indicator: TA98, Metabolic Activation: NONE, Method: PREINCUBATION) “inactive; negative”; (Test System: AMES SALMONELLA TYPHIMURIUM, Strain/Indicator: TA98, Metabolic Activation: RAT, LIVER, S-9, AROCLOR 1254 (5, 10 OR 30%), Method: PREINCUBATION) “inactive; negative”; (Test System: AMES SALMONELLA TYPHIMURIUM, Strain/Indicator: TA98, Metabolic Activation: RAT, LIVER, S-9, AROCLOR 1254 (10%), Method: PREINCUBATION) “inactive; negative”; (Test System: AMES SALMONELLA TYPHIMURIUM, Strain/Indicator: TA100, Metabolic Activation: HAMSTER, LIVER, S-9, AROCLOR 1254 (5%), Method: PREINCUBATION) “inactive; negative”. The mutagenic call is, setting by setting: (Test System: AMES SALMONELLA TYPHIMURIUM, Strain/Indicator: TA100, Metabolic Activation: HAMSTER, LIVER, S-9, AROCLOR 1254 (30%), Method: PREINCUBATION) “active; positive”; (Test System: AMES SALMONELLA TYPHIMURIUM, Strain/Indicator: TA100, Metabolic Activation: RAT, LIVER, S-9, AROCLOR 1254 (5, 10 OR 30%), Method: PREINCUBATION) “inactive; negative”; (Test System: AMES SALMONELLA TYPHIMURIUM, Strain/Indicator: TA100, Metabolic Activation: RAT, LIVER, S-9, AROCLOR 1254 (10%), Method: PREINCUBATION) “inactive; negative”; (Test System: AMES SALMONELLA TYPHIMURIUM, Strain/Indicator: TA1535, Metabolic Activation: HAMSTER, LIVER, S-9, AROCLOR 1254 (10%), Method: PREINCUBATION) “inactive; negative”; (Test System: AMES SALMONELLA TYPHIMURIUM, Strain/Indicator: TA1535, Metabolic Activation: NONE, Method: PREINCUBATION) “inactive; negative”; (Test System: AMES SALMONELLA TYPHIMURIUM, Strain/Indicator: TA1535, Metabolic Activation: RAT, LIVER, S-9, AROCLOR 1254 (10%), Method: PREINCUBATION) “inactive; negative”. In addition, the mutagenic call by setting is: (Test System: AMES SALMONELLA TYPHIMURIUM, Strain/Indicator: TA1537, Metabolic Activation: HAMSTER, LIVER, S-9, AROCLOR 1254 (10%), Method: PREINCUBATION) “inactive; negative”; (Test System: AMES SALMONELLA TYPHIMURIUM, Strain/Indicator: TA1537, Metabolic Activation: NONE, Method: PREINCUBATION) “inactive; negative”; (Test System: AMES SALMONELLA TYPHIMURIUM, Strain/Indicator: TA1537, Metabolic Activation: RAT, LIVER, S-9, AROCLOR 1254 (10%), Method: PREINCUBATION) “inactive; negative”.
`Cc1cccc(Nc2cc(Cl)nc(SCC(=O)O)n2)c1C`: the mutagenic call is “inactive; negative” (Test System: AMES SALMONELLA TYPHIMURIUM, Strain/Indicator: TA98, Metabolic Activation: NONE); “inactive; negative” (Test System: AMES SALMONELLA TYPHIMURIUM, Strain/Indicator: TA98, Metabolic Activation: RAT, LIVER, S-9, AROCLOR 1254); “inactive; negative” (Test System: AMES SALMONELLA TYPHIMURIUM, Strain/Indicator: TA102, Metabolic Activation: NONE); “inactive; negative” (Test System: AMES SALMONELLA TYPHIMURIUM, Strain/Indicator: TA102, Metabolic Activation: RAT, LIVER, S-9, AROCLOR 1254); “inactive; negative” (Test System: AMES SALMONELLA TYPHIMURIUM, Strain/Indicator: TA104, Metabolic Activation: NONE); “inactive; negative” (Test System: AMES SALMONELLA TYPHIMURIUM, Strain/Indicator: TA104, Metabolic Activation: RAT, LIVER, S-9, AROCLOR 1254). For the same molecule, the mutagenic call (Test System: UDS RAT HEPATOCYTES, Strain/Indicator: BROMODEOXYURIDINE INCORP, Metabolic Activation: NONE) was “active; positive”; the mutagenic call (Test System: UDS RAT HEPATOCYTES, Strain/Indicator: BROMODEOXYURIDINE INCORP, Metabolic Activation: NONE, Method: FLOW CYTOMETRIC ANALYSIS) is “inactive; negative”; the mutagenic call (Test System: UDS RAT HEPATOCYTES, Strain/Indicator: THY INCORP, Metabolic Activation: NONE, Method: AUTORADIOGRAPHY) was “inactive; negative”; the mutagenic call (Test System: UDS RAT HEPATOCYTES, Strain/Indicator: THY INCORP, Metabolic Activation: NONE, Method: LIQUID SCINTILLATION COUNTING) is “active; positive”.
As to `C=CC(=O)OCC(C)(C)C`, the mutagenic call runs as follows: under setting [3], “inactive; negative”; (Test System: AMES SALMONELLA TYPHIMURIUM, Strain/Indicator: TA98, Metabolic Activation: RAT, LIVER, S-9, AROCLOR 1254, Method: STANDARD PLATE) “inactive; negative”; (Test System: AMES SALMONELLA TYPHIMURIUM, Strain/Indicator: TA98, Metabolic Activation: RAT, LIVER, S-9, SODIUM PHENOBARBITAL, Method: STANDARD PLATE) “inactive; negative”; under setting [2], “inactive; negative”; (Test System: AMES SALMONELLA TYPHIMURIUM, Strain/Indicator: TA100, Metabolic Activation: RAT, LIVER, S-9, AROCLOR 1254, Method: STANDARD PLATE) “inactive; negative”; (Test System: AMES SALMONELLA TYPHIMURIUM, Strain/Indicator: TA100, Metabolic Activation: RAT, LIVER, S-9, SODIUM PHENOBARBITAL, Method: STANDARD PLATE) “inactive; negative”. The mutagenic call runs as follows: under setting [1], “inactive; negative”; (Test System: AMES SALMONELLA TYPHIMURIUM, Strain/Indicator: TA1535, Metabolic Activation: RAT, LIVER, S-9, AROCLOR 1254, Method: STANDARD PLATE) “inactive; negative”; (Test System: AMES SALMONELLA TYPHIMURIUM, Strain/Indicator: TA1535, Metabolic Activation: RAT, LIVER, S-9, SODIUM PHENOBARBITAL, Method: STANDARD PLATE) “inactive; negative”; (Test System: AMES SALMONELLA TYPHIMURIUM, Strain/Indicator: TA1537, Metabolic Activation: NONE, Method: STANDARD PLATE) “inactive; negative”; (Test System: AMES SALMONELLA TYPHIMURIUM, Strain/Indicator: TA1537, Metabolic Activation: RAT, LIVER, S-9, AROCLOR 1254, Method: STANDARD PLATE) “inactive; negative”; (Test System: AMES SALMONELLA TYPHIMURIUM, Strain/Indicator: TA1537, Metabolic Activation: RAT, LIVER, S-9, SODIUM PHENOBARBITAL, Method: STANDARD PLATE) “inactive; negative”. Also, the mutagenic call runs as follows: (Test System: AMES SALMONELLA TYPHIMURIUM, Strain/Indicator: TA1538, Metabolic Activation: NONE, Method: STANDARD PLATE) “inactive; negative”; (Test System: AMES SALMONELLA TYPHIMURIUM, Strain/Indicator: TA1538, Metabolic Activation: RAT, LIVER, S-9, AROCLOR 1254, Method: STANDARD PLATE) “inactive; negative”; (Test System: AMES SALMONELLA TYPHIMURIUM, Strain/Indicator: TA1538, Metabolic Activation: RAT, LIVER, S-9, SODIUM PHENOBARBITAL, Method: STANDARD PLATE) “inactive; negative”.
Consider `c1ccc2c(c1)ncc1cnc3ccccc3c12`, for which the mutagenic call runs as follows: under setting [3], “inactive; negative”; (Test System: AMES SALMONELLA TYPHIMURIUM, Strain/Indicator: TA98, Metabolic Activation: RAT LIVER S-9, AROCLOR 1254, Method: STANDARD PLATE) “inactive; negative”; (Test System: E.COLI, Strain/Indicator: WP2, Metabolic Activation: NONE, Method: SPOT TEST) “inactive; negative”; (Test System: E.COLI, Strain/Indicator: WP2 UVRA, Metabolic Activation: NONE, Method: STANDARD PLATE) “inactive; negative”; (Test System: E.COLI, Strain/Indicator: WP2 UVRA, Metabolic Activation: R, L, S-9, AROCLOR 1254, Method: STANDARD PLATE) “inactive; negative”; (Test System: ESCHERICHIA COLI, Strain/Indicator: WP2 UVR A, Metabolic Activation: NONE, Method: STANDARD PLATE) “inactive; negative”. Under “Test System: ESCHERICHIA COLI, Strain/Indicator: WP2 UVR A, Metabolic Activation: RAT LIVER S-9, AROCLOR 1254, Method: STANDARD PLATE”, the mutagenic call is “inactive; negative”.
Take `O=Nc1nc[nH]c1-c1ccccc1`: the mutagenic call under setting [2] was “active; positive”.
